# Measured values as given in patent publication US8815918B2, “Imidazo [2, 1-B] [1, 3, 4] thiadiazole derivatives” (Centro Nacional de Investigaciones Oncologicas (CNIO), priority 2009, dated 2014).
# pIC50: −log10 of the molar value. Read-outs that look alike come from different tables or passages of the source.
# Target: PI3K (p110α/p85α) (Homo sapiens (Human), UniProt P42336)
# Experiment: PI3K Activity Assay (ADP Hunter Plus)
# Type: biochemical
# Conditions: for inhibition at 10 µM: 10 μM compound concentration, read-out: Inhibition (%) of PI3Kα activity, Inh (%) at 10 μM; for pIC50: read-out: Biological activity in PI3Kα, semi-quantitative; for IC50: read-out: IC50 [μM] PI3Kα
# Procedure: The kinase activity was measured by using the commercial ADP Hunter™ Plus assay available from DiscoveRx (#33-016), which is a homogeneous assay to measure the accumulation of ADP, a universal product of kinase activity. The enzyme, PI3K (p110α/p85α was purchased from Carna Biosciences (#07CBS-0402A). The assay was done following the manufacturer recommendations with slight modifications: Mainly the kinase buffer was replace by 50 mM HEPES, pH 7.5, 3 mM MgCl2, 100 mM NaCl, 1 mM EGTA, 0.04% CHAPS, 2 mM TCEP and 0.01 mg/ml BGG. The PI3K was assayed in a titration experiment to determine the optimal protein concentration for the inhibition assay. To calculate the IC50 of the ETP-compounds, serial 1:5 dilutions of the compounds were added to the enzyme at a fixed concentration (2.5 μg/mL. The enzyme was preincubated with the inhibitor and 30 μM PIP2 substrate (P9763, Sigma) for 5 min and then ATP was added to a final 50 μM concentration. Reaction was carried out for 1 hour at 25° C. Reagent A and B were sequentially added to the wells and plates were incubated for 30 min at 37° C. Fluorescence counts were read in a Victor instrument (Perkin Elmer) with the recommended settings (544 and 580 nm as excitation and emission wavelengths, respectively). Values were normalized against the control activity included for each enzyme (i.e., 100% PI3 kinase activity, without compound). These values were plot against the inhibitor concentration and were fit to a sigmoid dose-response curve by using the Graphad software.
# PI3K (p110α/p85α), sequence (P42336 whole entry): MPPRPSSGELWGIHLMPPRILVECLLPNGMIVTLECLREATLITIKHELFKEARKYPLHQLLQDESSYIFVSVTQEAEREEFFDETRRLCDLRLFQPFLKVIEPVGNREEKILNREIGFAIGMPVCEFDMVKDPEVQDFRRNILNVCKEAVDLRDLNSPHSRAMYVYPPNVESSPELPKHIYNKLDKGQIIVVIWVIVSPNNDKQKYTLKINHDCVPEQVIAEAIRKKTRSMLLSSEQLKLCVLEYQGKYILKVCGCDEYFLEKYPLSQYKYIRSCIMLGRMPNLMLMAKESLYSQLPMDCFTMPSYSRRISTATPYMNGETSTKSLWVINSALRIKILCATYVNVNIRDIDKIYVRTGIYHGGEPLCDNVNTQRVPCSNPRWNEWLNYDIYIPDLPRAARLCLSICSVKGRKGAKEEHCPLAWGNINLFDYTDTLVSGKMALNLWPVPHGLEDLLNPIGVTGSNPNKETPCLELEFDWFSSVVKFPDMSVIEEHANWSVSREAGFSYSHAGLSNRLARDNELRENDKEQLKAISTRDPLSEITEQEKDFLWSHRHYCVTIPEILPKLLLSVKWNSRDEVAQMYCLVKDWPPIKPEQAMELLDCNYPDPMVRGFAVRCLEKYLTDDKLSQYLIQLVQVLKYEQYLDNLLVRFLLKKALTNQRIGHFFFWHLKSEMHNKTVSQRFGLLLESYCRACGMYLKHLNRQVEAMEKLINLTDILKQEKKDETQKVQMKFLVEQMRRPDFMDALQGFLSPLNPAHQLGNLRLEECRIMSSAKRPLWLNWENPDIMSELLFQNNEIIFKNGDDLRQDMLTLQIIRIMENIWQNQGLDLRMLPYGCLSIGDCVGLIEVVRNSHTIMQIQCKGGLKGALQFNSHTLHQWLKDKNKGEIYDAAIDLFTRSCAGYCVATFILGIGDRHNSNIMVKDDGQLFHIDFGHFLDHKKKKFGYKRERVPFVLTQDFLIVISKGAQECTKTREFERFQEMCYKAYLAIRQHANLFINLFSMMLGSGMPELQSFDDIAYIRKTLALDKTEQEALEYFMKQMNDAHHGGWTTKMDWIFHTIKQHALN
# PI3K (p110α/p85α), sequence (P27986 whole entry partner): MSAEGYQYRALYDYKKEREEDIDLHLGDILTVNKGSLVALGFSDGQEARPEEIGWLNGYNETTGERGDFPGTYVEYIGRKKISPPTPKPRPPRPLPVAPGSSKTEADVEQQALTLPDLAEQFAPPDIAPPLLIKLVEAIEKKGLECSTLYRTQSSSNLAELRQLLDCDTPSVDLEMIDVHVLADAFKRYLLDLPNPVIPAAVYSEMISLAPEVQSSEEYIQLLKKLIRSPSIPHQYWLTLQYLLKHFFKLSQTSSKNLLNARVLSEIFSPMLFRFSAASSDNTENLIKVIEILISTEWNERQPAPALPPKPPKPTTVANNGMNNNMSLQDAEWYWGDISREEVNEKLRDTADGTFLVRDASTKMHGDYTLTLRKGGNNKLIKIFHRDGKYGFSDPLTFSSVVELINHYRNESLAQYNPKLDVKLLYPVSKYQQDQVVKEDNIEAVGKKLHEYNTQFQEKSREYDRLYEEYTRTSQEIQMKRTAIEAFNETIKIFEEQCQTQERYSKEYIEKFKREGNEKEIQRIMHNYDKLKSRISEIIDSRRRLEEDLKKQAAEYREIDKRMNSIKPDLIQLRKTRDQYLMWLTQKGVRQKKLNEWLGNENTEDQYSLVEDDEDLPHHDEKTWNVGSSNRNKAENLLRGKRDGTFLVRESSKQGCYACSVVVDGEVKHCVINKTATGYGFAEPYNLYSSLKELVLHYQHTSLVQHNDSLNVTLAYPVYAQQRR
SMILES,inhibition at 10 µM,pIC50,IC50
"COc1ccc(-c2cnc3sc(-c4ccc(OC5CCNCC5)c(OC)c4)nn23)cn1 [Example 13, 2-[3-Methoxy-4-(piperidin-4-yloxy)-phenyl]-5-(6-methoxy-pyridin-3-yl)-imidazo[2,1-b][1,3,4]thiadiazole]",,4.30 to 6.00,
"COc1cc(-c2nn3c(-c4cnc(N)nc4)cnc3s2)ccc1OC1CCN(C(=O)OC(C)(C)C)CC1 [Example 14, 4-{4-[5-(2-Amino-pyrimidin-5-yl)-imidazo[2,1-b][1,3,4]thiadiazol-2-yl]-2-methoxy-phenoxy}-piperidine-1-carboxylic acid tert-butyl ester]",,4.30 to 6.00,
"COc1cc(-c2nn3c(-c4cnc(N)nc4)cnc3s2)ccc1OC1CCNCC1 [Example 15, 5-{2-[3-Methoxy-4-(piperidin-4-yloxy)-phenyl]-imidazo[2,1-b][1,3,4]thiadiazol-5-yl}-pyrimidin-2-ylamine]",,6.00 to 7.00,0.115 µM
"COc1ccc(-c2nn3c(-c4ccc(OC)c(OC)c4)cnc3s2)cc1OC [Example 16, 2,5-Bis-(3,4-dimethoxy-phenyl)-imidazo[2,1-b][1,3,4]thiadiazole]",97%,> 7.00,
"COc1ccc(-c2nn3c(-c4ccc(C#N)nc4)cnc3s2)cc1OC [Example 17, 5-[2-(3,4-Dimethoxy-phenyl)-imidazo[2,1-b][1,3,4]thiadiazol-5-yl]-pyridine-2-carbonitrile]",95%,> 7.00,0.063 µM
"COc1ccc(-c2nn3c(-c4cnc(N)c(C#N)c4)cnc3s2)cc1OC [Example 18, 2-Amino-5-[2-(3,4-dimethoxy-phenyl)-imidazo[2,1-b][1,3,4]thiadiazol-5-yl]-nicotinonitrile]",,> 7.00,0.033 µM
"COc1ccc(-c2nn3c(-c4cnc(N5CCN(C(=O)OC(C)(C)C)CC5)nc4)cnc3s2)cc1OC [Example 19, 4-{5-[2-(3,4-Dimethoxy-phenyl)-imidazo[2,1-b][1,3,4]thiadiazol-5-yl]-pyrimidin-2-yl}-piperazine-1-carboxylic acid tert-butyl ester]",,4.30 to 6.00,
"COc1ccc(-c2nn3c(-c4cnc(N5CCNCC5)nc4)cnc3s2)cc1OC [Example 20, 2-(3,4-Dimethoxy-phenyl)-5-(2-piperazin-1-yl-pyrimidin-5-yl)-imidazo[2,1-b][1,3,4]thiadiazole]",,6.00 to 7.00,
"COc1ccc(-c2nn3c(-c4cnc(N5CCN(C)CC5)nc4)cnc3s2)cc1OC [Example 21, 2-(3,4-Dimethoxy-phenyl)-5-[2-(4-methyl-piperazin-1-yl)-pyrimidin-5-yl]-imidazo[2,1-b][1,3,4]thiadiazole]",,6.00 to 7.00,
"COc1ccc(-c2nn3c(-c4cnc(N5CCNCC5)c(C(F)(F)F)c4)cnc3s2)cc1OC [Example 22, 2-(3,4-Dimethoxy-phenyl)-5-(6-piperazin-1-yl-5-trifluoromethyl-pyridin-3-yl)-imidazo[2,1-b][1,3,4]thiadiazole]",,6.00 to 7.00,
"COc1ccc(-c2nn3c(-c4cnc(SC)nc4)cnc3s2)cc1OC [Example 24, 2-(3,4-Dimethoxy-phenyl)-5-(2-methylsulfanyl-pyrimidin-5-yl)-imidazo[2,1-b][1,3,4]thiadiazole]",,6.00 to 7.00,
"COc1ccc(-c2nn3c(-c4cnc([S+](C)[O-])nc4)cnc3s2)cc1OC (stereo not drawn) [Example 25, 2-(3,4-Dimethoxy-phenyl)-5-(2-mthanesulfinyl-pyrimidin-5-yl) -imidazo[2,1-b][1,3,4]thiadiazole]",,6.00 to 7.00,
"COc1ccc(-c2nn3c(-c4cnc(NCCN(C)C)nc4)cnc3s2)cc1OC [Example 26, N′-{5-[2-(3,4-Dimethoxy-phenyl)-imidazo[2,1-b][1,3,4]thiadiazol-5-yl]-pyrimidin-2-yl}-N,N-dimethyl-ethane-1,2-diamine]",,6.00 to 7.00,
"COc1cncc(-c2cnc3sc(-c4ccc(OC)c(OC)c4)nn23)c1 [Example 27, 2-(3,4-dimethoxyphenyl)-5-(5-methoxypyridin-3-yl)imidazo[2,1-b][1,3,4]thiadiazole]",99%,> 7.00,
"N#Cc1cccc(-c2nn3c(-c4cnc(N)c(C(F)(F)F)c4)cnc3s2)c1 [Example 29, 3-[5-(6-Amino-5-trifluoromethyl-pyridin-3-yl)-imidazo[2,1-b][1,3,4]thiadiazol-2-yl]-benzonitrile]",,> 7.00,

# Second part, the compound after the results:
inhibition at 10 µM,pIC50,IC50,SMILES
68%,6.00 to 7.00,,"COc1ccc(-c2nn3c(-c4ccc(S(C)(=O)=O)c(F)c4)c(C)nc3s2)cc1OC [Example 1, 2-(3,4-Dimethoxy-phenyl)-5-(3-fluoro-4-methanesulfonyl-phenyl) -6-methyl-imidazo[2,1-b][1,3,4]thiadiazole]"
100%,6.00 to 7.00,,"COc1ccc(-c2nn3c(-c4ccc(C#N)nc4)c(C)nc3s2)cc1OC [Example 2, 5-[2-(3,4-Dimethoxy-phenyl)-6-methyl-imidazo[2,1-b][1,3,4]thiadiazol-5-yl]-pyridine-2-carbonitrile]"
97%,> 7.00,,"COc1ccc(-c2nn3c(-c4cnc(N)c(C(F)(F)F)c4)c(C)nc3s2)cc1OC [Example 3, 5-[2-(3,4-Dimethoxy-phenyl)-6-methyl-imidazo[2,1-b][1,3,4]thiadiazol-5-yl]-3-trifluoromethyl-pyridin-2-ylamine]"
81%,4.30 to 6.00,,"COc1ccc(-c2nn3c(-c4cccnc4)c(C)nc3s2)cc1OC [Example 4, 2-(3,4-Dimethoxy-phenyl)-6-methyl-5-pyridin-3-yl-imidazo[2,1-b][1,3,4]thiadiazole]"
70%,4.30 to 6.00,2.88 µM,"COc1ccc(-c2c(C)nc3sc(-c4ccc(OC)c(OC)c4)nn23)cn1 [Example 5, 2-(3,4-Dimethoxy-phenyl)-5-(6-methoxy-pyridin-3-yl)-6-methyl-imidazo[2,1-b][1,3,4]thiadiazole]"
85%,6.00 to 7.00,,"COc1ccc(-c2nn3c(-c4ccc(OC)c(OC)c4)c(C)nc3s2)cc1OC [Example 6, 2,5-Bis-(3,4-dimethoxy-phenyl)-6-methyl-imidazo[2,1-b][1,3,4]thiadiazole]"
100%,6.00 to 7.00,,"COc1ccc(-c2nn3c(-c4cnc(N)nc4)c(C)nc3s2)cc1OC [Example 7, 5-[2-(3,4-Dimethoxy-phenyl)-6-methyl-imidazo[2,1-b][1,3,4]thiadiazol-5-yl]-pyrimidin-2-ylamine]"
,4.30 to 6.00,,"COc1ccc(-c2nn3c(-c4ccc(O)nc4)c(C)nc3s2)cc1OC [Example 8, 5-[2-(3,4-Dimethoxy-phenyl)-6-methyl-imidazo[2,1-b][1,3,4]thiadiazol-5-yl]-pyridin-2-ol]"
77%,4.30 to 6.00,,"COc1cc(-c2nn3c(-c4cnc(N)c(C(F)(F)F)c4)c(C)nc3s2)ccc1OCCNC(=O)OC(C)(C)C [Example 9, tert-Butyl 2-(4-(5-(6-amino-5-(trifluoromethyl)pyridin-3-yl)-6-methylimidazo-[2,1-b][1,3,4]thiadiazol-2-yl)-2-methoxyphenoxy)ethylcarbamate]"
,4.30 to 6.00,,"COc1cc(-c2nn3c(-c4cnc(N)c(C(F)(F)F)c4)c(C)nc3s2)ccc1OCC(=O)N(C)C [Example 10, 2-(4-(5-(6-amino-5-(trifluoromethyl)pyridin-3-yl)-6-methylimidazo[2,1-b][1,3,4]thiadiazol-2-yl)-2-methoxyphenoxy)-N,N-dimethylacetamide]"
83%,4.30 to 6.00,,"COc1cc(-c2nn3c(-c4cnc(N)c(C(F)(F)F)c4)c(C)nc3s2)ccc1OCCN1CCOCC1 [Example 11, 5-(2-(4-(2-morpholinoethoxy)-3-methoxyphenyl)-6-methylimidazo[2,1-b][1,3,4]thiadiazol-5-yl)-3-(trifluoromethyl)pyridin-2-amine]"
,> 7.00,,"COc1cc(-c2nn3c(-c4cnc(N)c(C(F)(F)F)c4)cnc3s2)ccc1OC1CCNCC1 [Example 12, 5-{2-[3-Methoxy-4-(piperidin-4-yloxy)-phenyl]-imidazo[2,1-b][1,3,4]thiadiazol-5-yl}-3-trifluoromethyl-pyridin-2-ylamine]"
,6.00 to 7.00,0.447 µM,"COc1ccc(-c2nn3c(-c4cnc(N5CCN(C)CC5)c(C(F)(F)F)c4)cnc3s2)cc1OC [Example 23, 2-(3,4-Dimethoxy-phenyl)-5-[6-(4-methyl-piperazin-1-yl)-5-trifluoromethyl-pyridin-3-yl]-imidazo[2,1-b][1,3,4]thiadiazole]"
,6.00 to 7.00,,"COc1cccc(-c2nn3c(-c4cnc(N)c(C(F)(F)F)c4)cnc3s2)c1 [Example 28, 5-[2-(3-Methoxy-phenyl)-imidazo[2,1-b][1,3,4]thiadiazol-5-yl]-3-trifluoromethyl-pyridin-2-ylamine]"
,6.00 to 7.00,0.454 µM,"COc1ccc(-c2nn3c(-c4cnc(N)c(C(F)(F)F)c4)cnc3s2)cc1 [Example 30, 5-[2-(4-Methoxy-phenyl)-imidazo[2,1-b][1,3,4]thiadiazol-5-yl]-3-trifluoromethyl-pyridin-2-ylamine]"
